Measured values taken from patent publication US20220056019A1, “FARNESOID X RECEPTOR AGONISTS AND USES THEREOF” (Metacrine, Inc., priority 2018, published 2022).
pEC50: −log10 of the molar value.

Target: T1, hFXR (Homo sapiens, UniProt Q96RI1)
T1 construct: expressed in transfected cells; host or cells: CV-1 cells
T1 sequence (Q96RI1 1-486): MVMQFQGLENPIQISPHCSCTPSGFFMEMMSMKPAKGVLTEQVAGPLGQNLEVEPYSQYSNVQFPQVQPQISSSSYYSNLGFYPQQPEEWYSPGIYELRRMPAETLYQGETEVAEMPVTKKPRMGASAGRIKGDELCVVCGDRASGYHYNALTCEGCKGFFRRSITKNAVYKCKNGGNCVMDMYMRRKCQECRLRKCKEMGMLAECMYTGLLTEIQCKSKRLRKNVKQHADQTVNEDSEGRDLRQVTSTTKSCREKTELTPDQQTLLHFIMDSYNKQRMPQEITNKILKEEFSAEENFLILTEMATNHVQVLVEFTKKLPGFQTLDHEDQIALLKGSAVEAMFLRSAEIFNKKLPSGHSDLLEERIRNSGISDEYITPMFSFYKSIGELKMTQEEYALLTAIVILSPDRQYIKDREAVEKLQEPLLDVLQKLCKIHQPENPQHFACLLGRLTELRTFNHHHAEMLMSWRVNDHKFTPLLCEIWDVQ
T1 sequence (P19793 1-462 partner): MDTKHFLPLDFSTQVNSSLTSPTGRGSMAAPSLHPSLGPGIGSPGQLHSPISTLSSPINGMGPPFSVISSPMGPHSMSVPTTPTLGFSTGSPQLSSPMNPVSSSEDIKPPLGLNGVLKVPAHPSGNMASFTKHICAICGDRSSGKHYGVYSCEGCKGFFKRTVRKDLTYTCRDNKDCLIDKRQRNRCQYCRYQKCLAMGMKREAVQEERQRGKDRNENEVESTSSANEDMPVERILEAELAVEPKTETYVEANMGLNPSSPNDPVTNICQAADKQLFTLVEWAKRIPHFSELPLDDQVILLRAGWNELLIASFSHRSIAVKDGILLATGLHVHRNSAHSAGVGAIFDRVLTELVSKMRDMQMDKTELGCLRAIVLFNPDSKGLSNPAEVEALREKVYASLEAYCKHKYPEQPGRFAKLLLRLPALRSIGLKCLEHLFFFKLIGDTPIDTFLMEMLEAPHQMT
Assay: In Vitro FXR Assay (TK): TK-ECRE-luc reporter in transfected CV-1 cells
Assay type: cell-based
Conditions: 18 hrs incubation, luminescence
In short: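 CV-1 cells in DMEM with 10% charcoal-stripped FBS were transiently co-transfected with hFXR, hRXR, TK-ECRE-luc reporter and pCMX-YFP plasmids over 18 h at 37 °C. Compounds serially diluted in DMSO were added for 18 h; cells were then lysed and luciferase luminescence measured.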

SMILES	pEC50
COc1ccc([C@H]2CC[C@H](CN(c3cc(-c4cnn(C(F)(F)F)c4)ccn3)C(=O)[C@H]3CC[C@H](OC(=O)N4CC(O)C4)CC3)CC2)cc1C [Compound 2.57, trans-4-((((trans)-4-(4-Methoxy-3-methylphenyl)cyclohexyl)methyl) (4-(1-(trifluoromethyl)-1H-pyrazol-4-yl)pyridin-2-yl)carbamoyl)cyclohexyl 3-hydroxyazetidine-1-carboxylate]	≥ 7.30
COc1ccc(C23CCC(CN(c4cc(-c5cnn(C(C)C)c5)c(F)cn4)C(=O)[C@H]4CC[C@H](OC(=O)NCCCO)CC4)(CC2)CC3)cc1C [Compound 25.05, 4-((5-Fluoro-4-(1-isopropyl-1H-pyrazol-4-yl)pyridin-2-yl)((4-(4-methoxy-3-methylphenyl)bicyclo[2.2.2]octan-1-yl)methyl)carbamoyl)cyclohexyl trans-(3-hydroxypropyl)carbamate]	≥ 7.30
COc1ccc([C@H]2CC[C@H](CN(c3cccc(-c4cnn(C(C)C)c4)c3)C(=O)[C@H]3CC[C@H](CNC(=O)OC(C)C)CC3)CC2)cc1C [Compound 12.05, Isopropyl (((trans)-4-((3-(1-isopropyl-1H-pyrazol-4-yl)phenyl)(((trans)-4-(4-methoxy-3-methylphenyl)cyclohexyl)methyl)carbamoyl)cyclohexyl)methyl)car-bamate]	6.00 to 7.30
COc1ccc(C23CCC(CN(c4cc(-c5cnc(C(C)C)s5)ccn4)C(=O)[C@H]4CC[C@H](NC(C)=O)CC4)(CC2)CC3)cc1C [Compound 9.04, (trans)-4-Acetamido-N-(4-(2-isopropylthiazol-5-yl)pyridin-2-yl)-N-((4-(4-methoxy-3-methylphenyl)bicyclo[2.2.2]octan-1-yl)methyl)cyclohexanecarboxamide]	≥ 7.30
COc1ccc(C23CCC(CN(c4cc(-c5cnn(C(C)C)c5)ccn4)C(=O)[C@H]4CC[C@H](OC(=O)N5CC(C#N)C5)CC4)(CC2)CC3)cc1C [Compound 4.45, 4-((4-(1-Isopropyl-1H-pyrazol-4-yl)pyridin-2-yl) ((4-(4-methoxy-3-methylphenyl)bicyclo [2.2.2]octan-1-yl)methyl)carbamoyl)cyclohexyl trans-3-cyanoazetidine-1-carboxylate]	≥ 7.30
COc1ccc([C@H]2CC[C@H](CN(c3cc(-c4cnn(C(C)C)c4)ccn3)C(=O)[C@H]3CC[C@H](OC(=O)N4CCOCC4)CC3)CC2)cc1C [Compound 2.16, trans-4-((4-(1-Isopropyl-1H-pyrazol-4-yl)pyridin-2-yl)(((trans)-4-(4-methoxy-3-methylphenyl)cyclohexyl)methyl)carbamoyl)cyclohexyl morpholine-4-carboxylate]	≥ 7.30
COc1ccc([C@H]2CC[C@H](CN(c3cc(-c4cnn(C(C)C)c4)ccn3)C(=O)[C@H]3CC[C@H](OCCCO)CC3)CC2)cc1C [Compound 16.01, trans-4-(3-Hydroxypropoxy)-N-(4-(1-isopropyl-1H-pyrazol-4-yl)pyridin-2-yl)-N-((trans-4-(4-methoxy-3-methylphenyl)cyclohexyl)methyl)cyclo-hexanecarboxamide]	≥ 7.30
COc1ccc(C23CCC(CN(c4cncc(-c5cnn(C(C)C)c5)n4)C(=O)[C@H]4CC[C@H](OC(=O)N5CC(O)C5)CC4)(CC2)CC3)cc1C [Compound 25.28, 4-((6-(1-Isopropyl-1H-pyrazol-4-yl)pyrazin-2-yl)((4-(4-methoxy-3-methylphenyl)bicyclo[2.2.2]octan-1-yl)methyl)carbamoyl)cyclohexyl trans-3-hydroxyazetidine-1-carboxylate]	≥ 7.30
COc1ccc([C@H]2CC[C@H](CN(c3cccc(-c4cnn(C(C)C)c4)c3)C(=O)[C@H]3CC[C@H](NC(=O)CCCO)CC3)CC2)cc1C [Compound 14, trans-4-(4-Hydroxybutanamido)-N-(3-(1-isopropyl-1H-pyrazol-4-yl)phenyl)-N-((trans-4-(4-methoxy-3-methylphenyl)cyclohexyl)methyl)cyclohexanecarboxamide]	6.00 to 7.30
